Laboratory results taken from the NIST ThermoML archive (doi:10.1016/j.jct.2004.07.031).
Values joined by “and” are separate entries in the source; they are usually repeats but may differ in a detail not shown here. Equal entries are not always repeated.

Assay: molar heat capacity at constant pressure
Conditions: 101.33 kPa, Crystal, PPMS instrument (Quantum Design)

O=P([O-])([O-])[O-].[Gd+3] [gadolinium orthophosphate]
Conditions	molar heat capacity at constant pressure
0.525 K	7.722 J/K/mol
0.536 K	8.106 J/K/mol
0.547 K	8.475 J/K/mol
0.558 K	8.855 J/K/mol
0.569 K	9.277 J/K/mol
0.58 K	9.631 J/K/mol
0.591 K	10.11 J/K/mol
0.602 K	10.69 J/K/mol
0.614 K	11.24 J/K/mol
0.625 K	11.83 J/K/mol
0.637 K	12.57 J/K/mol
0.648 K	13.42 J/K/mol
0.659 K	14.37 J/K/mol
0.67 K	15.29 J/K/mol
0.681 K	16.55 J/K/mol
0.693 K	17.9 J/K/mol
0.703 K	19.56 J/K/mol
0.715 K	21.6 J/K/mol
0.726 K	24.07 J/K/mol
0.73 K	25.16 J/K/mol
0.733 K	26.31 J/K/mol
0.737 K	27.55 J/K/mol
0.738 K	27.92 J/K/mol
0.742 K	29.69 J/K/mol
0.743 K	29.92 J/K/mol
0.745 K	31.34 J/K/mol
0.747 K	31.86 J/K/mol
0.75 K	33.48 J/K/mol
0.751 K	34.37 J/K/mol
0.752 K	35.17 J/K/mol
0.755 K	37.19 J/K/mol
0.756 K	37.83 J/K/mol
0.758 K	40.08 J/K/mol
0.76 K	41.57 J/K/mol
0.763 K	44.62 J/K/mol
0.764 K	46.25 J/K/mol
0.765 K	47.54 J/K/mol
0.768 K	50.76 J/K/mol
0.77 K	52.55 J/K/mol
0.772 K	53.77 J/K/mol
0.773 K	54.78 J/K/mol
0.776 K	54.21 J/K/mol
0.777 K	51.7 J/K/mol and 54.18 J/K/mol
0.782 K	37.73 J/K/mol
0.783 K	33.58 J/K/mol
0.784 K	31.28 J/K/mol
0.786 K	23.82 J/K/mol
0.79 K	19.56 J/K/mol
0.791 K	19.09 J/K/mol
0.794 K	17.74 J/K/mol
0.796 K	16.84 J/K/mol
0.797 K	16.39 J/K/mol
0.799 K	15.8 J/K/mol
0.8 K	15.62 J/K/mol
0.804 K	14.83 J/K/mol
0.806 K	14.48 J/K/mol
0.816 K	13.11 J/K/mol
0.843 K	11.32 J/K/mol
0.867 K	10.3 J/K/mol
0.872 K	10.13 J/K/mol
0.882 K	9.827 J/K/mol
0.89 K	9.584 J/K/mol
0.892 K	9.579 J/K/mol
0.902 K	9.269 J/K/mol
0.912 K	9.065 J/K/mol
0.914 K	9.009 J/K/mol
0.922 K	8.871 J/K/mol
0.933 K	8.692 J/K/mol
0.939 K	8.538 J/K/mol
0.942 K	8.499 J/K/mol
0.952 K	8.332 J/K/mol
0.962 K	8.221 J/K/mol
0.963 K	8.167 J/K/mol
0.973 K	8.056 J/K/mol
0.983 K	7.933 J/K/mol
0.986 K	7.919 J/K/mol
0.993 K	7.852 J/K/mol
1.003 K	7.778 J/K/mol
1.01 K	7.554 J/K/mol
1.059 K	6.868 J/K/mol
1.141 K	6.058 J/K/mol
1.22 K	5.523 J/K/mol
1.301 K	4.919 J/K/mol
1.381 K	4.476 J/K/mol
1.461 K	4.061 J/K/mol
1.544 K	3.711 J/K/mol
1.619 K	3.447 J/K/mol
1.699 K	3.178 J/K/mol
1.78 K	2.944 J/K/mol
1.841 K	2.578 J/K/mol
1.86 K	2.751 J/K/mol
1.94 K	2.578 J/K/mol
2.02 K	2.372 J/K/mol
2.234 K	1.874 J/K/mol
2.648 K	1.377 J/K/mol
3.055 K	1.063 J/K/mol
3.464 K	0.8457 J/K/mol
3.872 K	0.6931 J/K/mol
4.291 K	0.57 J/K/mol
4.675 K	0.4911 J/K/mol
5.081 K	0.4292 J/K/mol
5.499 K	0.3415 J/K/mol
5.896 K	0.3389 J/K/mol
6.3 K	0.3079 J/K/mol
6.728 K	0.2809 J/K/mol
7.126 K	0.2659 J/K/mol
7.523 K	0.2545 J/K/mol
7.936 K	0.2483 J/K/mol
8.343 K	0.2454 J/K/mol
8.747 K	0.246 J/K/mol
8.971 K	0.2476 J/K/mol
9.151 K	0.2497 J/K/mol
9.554 K	0.2573 J/K/mol
9.964 K	0.2698 J/K/mol
9.976 K	0.2696 J/K/mol
10.96 K	0.3114 J/K/mol
11.94 K	0.3719 J/K/mol
12.94 K	0.4546 J/K/mol
13.93 K	0.5628 J/K/mol
14.93 K	0.6954 J/K/mol
15.93 K	0.8555 J/K/mol
16.93 K	1.039 J/K/mol
17.94 K	1.247 J/K/mol
18.95 K	1.476 J/K/mol
19.95 K	1.752 J/K/mol
20.95 K	2.036 J/K/mol
21.96 K	2.353 J/K/mol
22.97 K	2.692 J/K/mol
23.97 K	3.053 J/K/mol
24.98 K	3.44 J/K/mol
25.98 K	3.849 J/K/mol
26.99 K	4.279 J/K/mol
28 K	4.714 J/K/mol
29 K	5.169 J/K/mol
30.01 K	5.631 J/K/mol
32 K	6.652 J/K/mol
34 K	7.603 J/K/mol
36.02 K	8.663 J/K/mol
38.05 K	9.792 J/K/mol
40.06 K	10.89 J/K/mol
42.08 K	12.02 J/K/mol
44.09 K	13.17 J/K/mol
46.11 K	14.35 J/K/mol
48.12 K	15.55 J/K/mol
50.14 K	16.75 J/K/mol
53.15 K	18.58 J/K/mol
56.16 K	20.4 J/K/mol
59.19 K	22.22 J/K/mol
62.22 K	24.02 J/K/mol
65.24 K	25.8 J/K/mol
68.26 K	27.54 J/K/mol
71.29 K	29.29 J/K/mol
74.3 K	31.02 J/K/mol
77.33 K	32.72 J/K/mol
80.35 K	34.4 J/K/mol
85.39 K	37.09 J/K/mol
92.14 K	40.56 J/K/mol
98.9 K	43.87 J/K/mol
105.7 K	47.02 J/K/mol
112.4 K	50.06 J/K/mol
119.2 K	53.01 J/K/mol
126 K	55.84 J/K/mol
132.7 K	58.53 J/K/mol
139.5 K	61.13 J/K/mol
146.3 K	63.67 J/K/mol
153 K	65.98 J/K/mol
159.8 K	68.28 J/K/mol
166.6 K	70.53 J/K/mol
173.3 K	72.7 J/K/mol
180.1 K	74.71 J/K/mol
186.8 K	76.76 J/K/mol
193.6 K	78.76 J/K/mol
200.4 K	80.59 J/K/mol
207.1 K	82.32 J/K/mol
213.8 K	84.09 J/K/mol
220.6 K	85.76 J/K/mol
227.4 K	87.27 J/K/mol
234.1 K	88.95 J/K/mol
240.9 K	90.53 J/K/mol
247.7 K	92.18 J/K/mol
254.4 K	93.53 J/K/mol
261.1 K	94.92 J/K/mol
267.9 K	96.45 J/K/mol
274.6 K	97.84 J/K/mol
281.3 K	98.99 J/K/mol
288.1 K	100.29 J/K/mol
294.8 K	101.42 J/K/mol
301.6 K	102.56 J/K/mol
